Measurements from patent publication US10087181B2, “Compound as WNT signaling inhibitor, composition, and use thereof” (CUREGENIX, INC., priority 2012, dated 2018).

Tested on: WNT pathway
Experiment: WNT pathway reporter gene assay (NIH3T3 TCF-Luc cells co-cultured with 293 WNT3a cells)
Format: cell-based
Settings: Mus musculus, concentration reducing luminescence intensity by 50%, TCF luciferase, 16 hours co-culture
Experimental: NIH3T3 mouse fibroblast cells (American Type Culture Collection, Manassas, Va.) were transfected with a plasmid containing a luciferase gene driven by 5 copies of TCF elements. Stale cells selected with 1 μg/mL of Zeocin (Gibco/Invitrogen, Carlsbad, Calif.) are cultured in Dulbecco's modified Eagle's medium (Invitrogen, Carlsbad, Calif.) supplemented with 10% FBS (Invitrogen), 50 unit/mL penicillin and 50 μg/mL of streptomycin (Invitrogen) at 37° C. with 5% CO2 in air atmosphere.
After 16 hours, the firefly luciferase activities are measured with the Steady-Glo™ Luciferase Assay System (Promega). The cells were treated with different concentrations of compounds of this invention during the co-culture. […] To normalize for cell quantity and viability, CellTiter Glo assay is next performed in a duplicate plate.

IC50, < 3 nM:
Cc1cc(-c2cc3ccnc(NCc4ccc(-c5ccnc(F)c5)c(F)c4)c3cn2)ccn1 [Compound 28]
Cc1cc(-c2ccc(CNc3nccc4cc(-c5cnccn5)ncc34)cc2)ccn1 [Compound 35]
Cc1cc(-c2ncc(CNc3nccc4cc(-c5cnccn5)ccc34)cc2C)ccn1 [Compound 70]
Cc1cc(-c2ccc(CNc3nccc4cc(-c5ccnc(C)c5)ncc34)cc2)ccn1 [Compound 1, N-(4-(2-methylpyridin-4-yl)benzyl)-6-(2-methylpyridin-4-yl)-2,7-naphthyridin-1-amine]
Cc1cc(-c2cc3ccnc(NCc4ccc(-c5ccnc(C)c5)c(C)c4)c3cn2)ccn1 [Compound 2, N-(3-methyl-4-(2-methylpyridin-4-yl)benzyl)-6-(2-methylpyridin-4-yl)-2,7-naphthyridin-1-amine]
